Data as given in ChEMBL document CHEMBL4622940, “Synthesis and dopamine receptor pharmacological evaluations on ring C ortho halogenated 1-phenylbenzazepines” (Bioorg Med Chem Lett, 2020).
Calls of active or inactive are those of the source. The calls are words filed in the database; no cut-off is given here.

Key:
D(1A) dopamine receptor [1] = molecular target: T1, D(1A) dopamine receptor (Homo sapiens, UniProt P21728); test: Displacement of [3H]SCH23390 from dopamine D1 receptor (unknown origin)
T1 sequence (P21728 whole entry): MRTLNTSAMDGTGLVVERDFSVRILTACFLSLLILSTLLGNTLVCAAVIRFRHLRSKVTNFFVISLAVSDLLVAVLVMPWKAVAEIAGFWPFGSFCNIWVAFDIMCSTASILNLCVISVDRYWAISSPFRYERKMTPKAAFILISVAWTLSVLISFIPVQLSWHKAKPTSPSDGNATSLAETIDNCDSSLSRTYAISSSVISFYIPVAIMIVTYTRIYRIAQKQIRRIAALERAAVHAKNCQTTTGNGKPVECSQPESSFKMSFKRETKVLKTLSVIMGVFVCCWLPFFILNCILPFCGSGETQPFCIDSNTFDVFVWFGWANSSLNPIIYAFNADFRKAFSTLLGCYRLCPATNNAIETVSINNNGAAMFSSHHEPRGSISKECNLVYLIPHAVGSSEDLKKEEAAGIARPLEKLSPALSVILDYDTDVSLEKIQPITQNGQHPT

Homo sapiens = species: Homo sapiens; test: Selectivity index, ratio of Ki for displacement of [3H]SCH23390 from dopamine D5 receptor (unknown origin) to Ki for displacement of [3H]SCH23390 from dopamine D1 receptor (unknown origin)
D(1A) dopamine receptor [2] = molecular target: T1, D(1A) dopamine receptor; test: Agonist activity at human dopamine D1 receptor expressed in CHO-K1 cells by cAMP Hunter assay; type: functional, cell-based
D(2) dopamine receptor [3] = molecular target: T2, D(2) dopamine receptor (Homo sapiens, UniProt P14416); test: Displacement of [3H]N-methylspiperone from dopamine D2 receptor (unknown origin) at 10 uM relative to control
T2 sequence (P14416 whole entry): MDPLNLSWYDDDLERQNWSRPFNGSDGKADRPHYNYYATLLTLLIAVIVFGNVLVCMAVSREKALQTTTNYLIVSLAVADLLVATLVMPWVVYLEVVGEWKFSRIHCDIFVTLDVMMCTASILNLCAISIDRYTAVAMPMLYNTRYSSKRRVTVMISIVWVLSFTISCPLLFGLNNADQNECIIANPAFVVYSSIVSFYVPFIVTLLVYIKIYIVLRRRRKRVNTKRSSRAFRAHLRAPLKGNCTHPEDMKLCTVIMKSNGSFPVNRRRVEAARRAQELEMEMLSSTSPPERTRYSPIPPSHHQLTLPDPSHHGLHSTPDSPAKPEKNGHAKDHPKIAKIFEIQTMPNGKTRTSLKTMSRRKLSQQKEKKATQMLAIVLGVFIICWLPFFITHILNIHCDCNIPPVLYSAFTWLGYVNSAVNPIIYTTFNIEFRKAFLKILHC

D(1A) dopamine receptor [4] = molecular target: T1, D(1A) dopamine receptor; test: Antagonist activity at human dopamine D1 receptor expressed in CHO-K1 cells by cAMP Hunter assay; type: functional, cell-based
D(1B) dopamine receptor = D(1B) dopamine receptor (Homo sapiens, UniProt P21918); test: Displacement of [3H]SCH23390 from dopamine D5 receptor (unknown origin)
Chain of D(1B) dopamine receptor (P21918 whole entry): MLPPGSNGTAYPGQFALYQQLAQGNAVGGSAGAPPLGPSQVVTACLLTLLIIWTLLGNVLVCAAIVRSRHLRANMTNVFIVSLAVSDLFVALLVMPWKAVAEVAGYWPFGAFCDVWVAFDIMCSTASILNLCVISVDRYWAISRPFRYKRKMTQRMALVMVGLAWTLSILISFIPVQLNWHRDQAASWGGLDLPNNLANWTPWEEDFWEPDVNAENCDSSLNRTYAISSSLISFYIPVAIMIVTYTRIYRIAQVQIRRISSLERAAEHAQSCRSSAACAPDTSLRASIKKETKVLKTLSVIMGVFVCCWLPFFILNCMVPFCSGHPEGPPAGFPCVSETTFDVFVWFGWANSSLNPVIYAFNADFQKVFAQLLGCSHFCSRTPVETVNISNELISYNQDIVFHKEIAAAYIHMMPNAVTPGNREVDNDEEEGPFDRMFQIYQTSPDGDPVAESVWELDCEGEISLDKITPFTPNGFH

D(2) dopamine receptor [5] = molecular target: T2, D(2) dopamine receptor; test: Displacement of [3H]N-methylspiperone from dopamine D2 receptor (unknown origin)

SMILES | Ki (D(1A) dopamine receptor [1]) | Ratio Ki (Homo sapiens) | Activity (D(1A) dopamine receptor [2]) | inhibition (D(2) dopamine receptor [3]) | IC50 (D(1A) dopamine receptor [4]) | Ki (D(1B) dopamine receptor) | Ki (D(2) dopamine receptor [5])
COc1cc2c(cc1O)C(c1ccccc1Cl)CNCC2 (stereo not drawn) | 147 nM | < 3 | – | < 50% | – | 483 nM | –
C=CCN1CCc2cc(OC)c(O)cc2C(c2c(Cl)cccc2Cl)C1 (stereo not drawn) | 1040 nM | – | – | – | – | 479 nM | 1510 nM
C=CCN1CCc2cc(O)c(O)cc2C(c2ccccc2Br)C1 (stereo not drawn) | 133 nM | 3 to 4 | – | < 50% | – | 442 nM | –
COc1cc2c(cc1O)C(c1ccccc1)CNCC2 (stereo not drawn) | 126 nM | < 3 | – | < 50% | – | 310 nM | –
COc1cc2c(cc1O)C(c1c(Cl)cccc1Cl)CN(C)CC2 (stereo not drawn) | 145 nM | – | – | < 50% | – | 49.1 nM | –
COc1cc2c(cc1O)C(c1ccccc1Br)CN(C)CC2 (stereo not drawn) | 16 nM | 4 | – | < 50% | – | 47 nM | –

More lines, now with the values ahead:

Ki (D(1A) dopamine receptor [1]) | Ratio Ki (Homo sapiens) | Activity (D(1A) dopamine receptor [2]) | inhibition (D(2) dopamine receptor [3]) | IC50 (D(1A) dopamine receptor [4]) | Ki (D(1B) dopamine receptor) | Ki (D(2) dopamine receptor [5]) | SMILES
14 nM | 3 | inactive | < 50% | 9.4 nM | 46.4 nM | – | COc1cc2c(cc1O)C(c1ccccc1Cl)CN(C)CC2 (stereo not drawn)
26 nM | – | – | < 50% | – | 67 nM | – | Oc1cc2c(cc1O)C(c1ccccc1Br)CNCC2 (stereo not drawn)
48.3 nM | – | – | < 50% | – | 264 nM | – | C=CCN1CCc2cc(OC)c(O)cc2C(c2ccccc2Cl)C1 (stereo not drawn)
41 nM | – | – | < 50% | – | 501 nM | – | C=CCN1CCc2cc(OC)c(O)cc2C(c2ccccc2Br)C1 (stereo not drawn)
76.1 nM | – | – | < 50% | – | 25.4 nM | – | COc1cc2c(cc1O)C(c1c(Cl)cccc1Cl)CNCC2 (stereo not drawn)
72 nM | < 3 | – | < 50% | – | 82 nM | – | COc1cc2c(cc1O)C(c1ccccc1Br)CNCC2 (stereo not drawn)
59.4 nM | 3 to 4 | – | < 50% | – | 223 nM | – | CN1CCc2cc(O)c(O)cc2C(c2ccccc2Br)C1 (stereo not drawn)
